Data on 29 compounds can be found in patent publication US20150250769A1, “METHODS AND COMPOSITIONS FOR INHIBITING RHO/MRTF-MEDIATED DISEASES AND CONDITIONS” (THE REGENTS OF THE UNIVERSITY OF MICHIGAN, priority 2014, published 2015).

As usually defined, the IC50 is the concentration at which inhibition is half-maximal.

Data set [1] relates to Rho (MRTF/SRF-regulated gene transcription, SRE-Luciferase). As to conditions: Evelyn et al. 2007; cited from earlier work.
Another data set has as its system peritoneal fibrosis. Conditions: Sakai et al. 2013; cited from earlier work.
Data set [2] relates to COL1A2 and ACTA2 (αSMA) mRNA. Nature of the data set: LPA-induced COL1A2 and ACTA2 mRNA in NIH-3T3 cells. The format is cell-based. An excerpt: (§1) A & B) CCG-203971 inhibits LPA-induced COL1A2 and ACTA2 (αSMA) mRNA in NIH-3T3 cells.
The next data set can be described thus: Acute cellular toxicity. The format is cell-based. As to conditions: FIG. 2B; compared with CCG-1423.
The test system of another data set is human dermal fibroblasts. Nature of the data set: Myofibroblast differentiation / αSMA staining in dermal fibroblasts (TGFβ-induced normal, SSc). The format is cell-based. As to conditions: for myofibroblast differentiation / phenotype (αSMA): in vitro, TGFβ-stimulated normal human dermal fibroblasts and SSc fibroblasts; for potency to reduce alpha-SMA staining, human primary dermal fibroblasts: 72-hour assay. On the procedure:
B-D) Human dermal fibroblasts were treated with TGFβ (10 ng/ml) for 3 days with various concentrations of CCG-58150.
as §1

A short description of data set [3]: In vivo tolerability (general statement). As to conditions: compared with CCG-1423.
For a further data set, the system named is cellular migration. The data set is described as follows: Cellular migration. The format is cell-based. As to conditions: FIG. 5.
For a further data set, the system named is skin fibrosis. Nature of the data set: Bleomycin skin injury (dermal fibrosis) model. As to conditions: mouse; 100 mg/kg. The format is in vivo. From the text: Mice are weighed once prior to study start. Dermal fibrosis is induced in Groups 2-5 by daily intradermal injections of bleomycin over 14 days. Group 1 will receive vehicle 1 (PBS) over the same days. Daily therapeutic dosing with either vehicle 2 or CCG-58150 by oral gavage coincide with the intradermal injection study days. Mice are anesthetized using isoflurane during intradermal injections. The back is shaved and the injection site ( 1 cm2) cleaned with three alternating passes of chlorhexidine and warm, sterile saline or water. The periphery of the injection site is circled using a […] marker as a visual aid. Bleomycin is dissolved in sterile PBS at a concentration of 1 mg/ml, sterile filtered, and frozen in aliquots appropriately sized for the daily injections prior to the start of the dosing period. 100 μl of bleomycin or PBS (Vehicle 1) is administered to anesthetized mice by intradermal injection using a 0.5 cc TB syringe with a 27 G needle. Following bleomycin or vehicle administration, test substance (CCG-58150) or vehicle 2 (20% DMSO/30% PEG/50% PBS) is administered by oral gavage at 10 μL/gram of body weight. […] Images are collected on an Evos microscope and skin thickness and intensity of fibrosis of two distinct images from each animal is analyzed using ImageJ. […]

The test system of data set [4] is Rho (MRTF/SRF-regulated gene transcription, SRE-Luciferase). Nature of the data set: SRE-Luciferase reporter, Rho inhibition. The format is cell-based. On the procedure:
In the course of these studies, the rho transcription reporter method that uses the rho-specific SRE-Luciferase was developed. This transcriptional reporter method, described in detail therein, was used for screening a small chemical library for possible rho inhibitors (Evelyn et al., Mol Canc. Ther. 6:2249-60, 2007; herein incorporated by reference in its entirety). Additional inhibitors were identified as described below.
CCG-1423 was a cellular IC50 of ˜1 uM to inhibit SRE-Luciferase expression (Evelyn, C. R., Wade, S. M., Wang, Q., Wu, M., Iniguez-Lluhi, J. A., Merajver, S. D., and Neubig, R. R. 2007. CCG-1423: a small-molecule inhibitor of RhoA transcriptional signaling. Mol Cancer Ther 6:2249-2260). It has been used in many labs as a tool compound for blocking MRTF/SRF-regulated gene transcription (Sandbo et al., et al., 2011. Am J Physiol Lung Cell Mol Physiol 301:L656-666; Sandbo, et al., 2009. Am J Respir Cell Mol Biol 41:332-338; Evelyn, et al., 2007. Mol Cancer Ther 6:2249-2260; Sandbo et al., 2013. J Biol Chem 288:15466-15473; Prencipe et al., 2013. Prostate 73:743-753; Sakai et al., 2013. FASEB J 27:1830-1846; Buller et al., 2012. Glia 60:1906-1914; Chong et al., 2012. PLoS One 7:e40966; Jin et al., 2011. J Clin Invest 121:918-929; Mae et al., 2010. Biochem Biophys Res Commun 393:877-882; Evelyn et al., 2010. Bioorg Med Chem Lett 20:665-672; Lu et al., 2009. Curr Med Chem 16:1355-1365). CCG-1423 acts by preventing nuclear accumulation of MRTF (Evelyn et al, supra; Jin et al., supra).
Background: Reporter assays use an easily measured gene product as a stand-in for the process of interest.

Data set [5] in a line: Preliminary tolerability study in normal mice. As to conditions: 10 mg/kg i.p. daily for 2-weeks. The class given is in vivo. On the procedure: The experiments shown in FIG. 4 are repeated CCG-58150 and derivatives thereof. A range of doses (0.1, 1, and 10 mg/kg) is used to increase the likelihood of finding a well-tolerated dose that is effective.
The test system of another data set is CTGF mRNA. The data set is described as follows: CTGF mRNA by qRT-PCR in LPA-stimulated NIH3T3 cells. The class given is cell-based. On the technique in general: In qPCR the cycle at which signal appears reflects the starting amount.
A short description of data set [6]: Stability in liver microsomes. The class given is in vitro ADME. Background: Microsomes from liver hold many membrane-bound enzymes, among them those of drug oxidation.

The structures appear in SMILES notation. Entries after “also recorded” stand apart in the source; their conditions may differ. Some results are limits rather than exact numbers.

With `CC(ONC(=O)c1cc(C(F)(F)F)cc(C(F)(F)F)c1)C(=O)Nc1ccc(Cl)cc1` (stereo not shown) [CCG-1423], the “reduction of SRF-mediated transcription versus ROCK inhibitors” value in data set [1] is reported as “more effective than ROCK inhibitors”. Moreover, in the data set with peritoneal fibrosis, the “activity in peritoneal fibrosis model” value is on record as “in vivo activity”.
Regarding `O=C(Nc1ccc(Cl)cc1)C1CCCN(C(=O)c2cccc(-c3ccco3)c2)C1` (stereo not shown) [CCG-203971], the “LPA-induced COL1A2 and ACTA2 (αSMA) mRNA” value in data set [2] is “inhibits”. Moreover, in the data set “Acute cellular toxicity”, the acute cellular toxicity entry was “less acute cellular toxicity; also recorded: reduced acute cellular toxicity”. For the same compound, the “potency relative to perfenidone” value in the data set with human dermal fibroblasts (FIG. 4C) was found to be 100 ×. The “myofibroblast differentiation / phenotype (αSMA)” value with human dermal fibroblasts was “reverses the myofibroblast phenotype; also recorded: Suppression of myofibroblast activation”. Besides, in [3], the tolerability in vivo result is listed as “much better tolerated in vivo”. In the data set on cellular migration, the cellular migration entry is recorded as “inhibition of cellular migration”. Further, the “fibrosis in bleomycin skin injury model” value with skin fibrosis is “prevented fibrosis; also recorded: very strongly significant effect; also recorded: prevents skin fibrosis”. Moreover, in the data set “In vivo pharmacokinetics” (in vivo), the hepatic clearance entry is recorded as “rapid hepatic clearance” and the “pharmacokinetics (overall)” value is on record as “poor pharmacokinetics”. The oral absorption entry in “In vivo pharmacokinetics” (in vivo, po) is “low oral absorption”.
Turning to `c1ccc(-c2nnc(SCCC3OCCCO3)o2)cc1` [compound 20321], the concentration for half-maximal inhibition (IC50) in data set [4] is over 100 µM.
Turning to `Cc1cccc(-c2nnc(SCCC(=O)O)o2)c1` [compound 58146], the “potency in SRE-luciferase” value in data set [4] (FIG. 2C, listed as CCG-58146) was “nM IC50; also recorded: markedly higher potency”. Also, the cellular migration result in the data set with cellular migration is reported as “inhibition of cellular migration”.
With `O=C(O)CCSc1nnc(-c2ccc(Cl)cc2Cl)o1` [compound 58150], the IC50 turned out to be 0.004 µM in data set [4] and 1 nM with CTGF mRNA (Mus musculus, FIG. 3, NIH3T3 cells stimulated with LPA, read-out: IC50, inhibition of expression of endogenous CTGF mRNA). Further, the tolerability entry in data set [5] is reported as “tolerated”. Further, the “potency in a 24-hour assay in NIH 3T3 cells” value in the data set with CTGF mRNA (24-hour assay) is recorded as “nM potency”. The results for the “potency to reduce alpha-SMA staining, human primary dermal fibroblasts” value in the data set on human dermal fibroblasts (listed as CCG-58150) and in the data set with human dermal fibroblasts (listed as CCG-518150) were “fM-pM” and “fM-pM potency”, respectively. Moreover, the figures for the “myofibroblast differentiation / phenotype (αSMA)” value in the data set with human dermal fibroblasts and in the data set with human dermal fibroblasts (listed as CCG-58150) were “αSMA inhibition” and “blocks myofibroblast differentiation at pM concentrations”, respectively. Further, the “maximum suppression, inhibition of % αSMA positive cells” value with human dermal fibroblasts (maximum effect) amounted to 60%. The cellular migration entry with cellular migration was “inhibition of cellular migration”. For the same compound, the “blood levels 24 hours after a single oral dose relative to in vitro IC50” value in “In vivo pharmacokinetics” (24 hours, single oral dose) was “over 10 fold”. The “pharmacokinetics (overall)” value in “In vivo pharmacokinetics” (in vivo) is given as “very good in vivo pharmacokinetics”. For the same compound, the “stability in liver microsomes” value in data set [6] is on record as “highly favorable stability”.
Consider `COC(=O)CSc1nnc(-c2ccc(C)cc2)o1` [compound 105557], for which, in data set [4], the midpoint of inhibition, the IC50, lay at 5.2 µM.
Compound `COc1ccc(-c2nnc(SCCC(=O)O)n2C)cc1` [compound 107983] gave a 50% inhibitory concentration (IC50) in data set [4] of over 100 µM.
Consider `O=C(O)CCSc1nc2ccccc2n1Cc1ccccc1` [compound 111085], for which, in data set [4], the IC50 was over 100 µM.
In turn, `Cc1ccc(-c2nnc(SCC(=O)O)o2)cc1` [compound 114898] registered an IC50 in data set [4] of 6.7 µM.
The same measure, in the same setting: for `O=C(O)CCSc1nnc(-c2cccc(Br)c2)o1` [compound 123853] the value was 6.4 µM; for `Cc1cccc(-c2nnc(SCC(=O)O)o2)c1` [compound 123860], 43 µM.
For the compound `O=C(O)CCSc1nnc(-c2ccncc2)o1` [compound 123867], in data set [4], the IC50 is over 100 µM.
Still for that read-out and setting: in the case of `O=C(O)CCSc1nnc(-c2cccnc2)o1` [compound 123869] it was 87 µM; in that of `Cc1occc1-c1nnc(SCCC(=O)O)o1` [compound 123873], over 100 µM.
The same measure, in the same setting: in the case of `Cc1cccc(-c2nnc(SCC(N)=O)o2)c1` [compound 211912] it was over 100 µM; in that of `CCCN(CCC)C(=O)CSc1nnc(-c2cccc(C)c2)o1` [compound 211913], over 100 µM; in that of `O=C(O)CCSc1nc(-c2ccccc2)cc(=O)[nH]1` [compound 211914], over 100 µM.
For `O=C(O)CSc1nnc(-c2ccc(Cl)cc2Cl)o1` [compound 215027], in data set [4], the IC50 was over 100 µM.
In data set [4], `CCOC(=O)CSc1nnc(-c2ccc(Cl)cc2Cl)o1` [compound 215028] showed a concentration for half-maximal inhibition (IC50) of over 100 µM.
As to `CC(C)(C)NC(=O)CSc1nnc(-c2ccc(Cl)cc2Cl)o1` [compound 215029], the half-inhibitory concentration (IC50) in [4] is over 100 µM.
The same measure, in the same setting: for `COc1ccc(-c2nnc(SCCC(=O)O)[nH]2)cc1` [compound 215104] the value was over 100 µM.
The compound `COCCNC(=O)CCSc1nnc(-c2ccc(Cl)cc2Cl)o1` [compound 215160] came in with an IC50 in [4] of over 100 µM.
As for `COc1cc(C)ccc1-c1nnc(SCCC(=O)O)o1` [compound 215201], the IC50 in [4] stood at 0.023 µM.
For the compound `O=C(O)CCOc1nnc(-c2ccc(Cl)cc2Cl)s1` [compound 215240], the IC50 in data set [4] was 24 µM.
Regarding `O=C(O)CCCc1nnc(-c2ccc(Cl)cc2Cl)o1` [compound 222620], the concentration for half-maximal inhibition (IC50) in data set [4] was over 100 µM.
`COc1c(Cl)ccc(-c2nnc(SCCC(=O)O)o2)c1Cl` [compound 222623] had a half-inhibitory concentration (IC50) in [4] of 0.0086 µM.
In [4], `COc1cc(Cl)cc(Cl)c1-c1nnc(SCCC(=O)O)o1` [compound 222687] came in with an IC50 of 10 µM.
In data set [4], `O=C(O)CCSc1nnc(-c2ccc(F)cc2Cl)o1` [compound 232002] registered an IC50 of 0.025 µM.
In data set [4], `O=C(O)CCCCSc1nnc(-c2ccc(Cl)cc2Cl)o1` [compound 232503, 5-((5-(2,4-dichlorophenyl)-1,3,4-oxadiazol-2-yl)thio)pentanoic acid] came in with a half-inhibitory concentration (IC50) of 0.003 µM.
